From ChEMBL document CHEMBL1132968, “Substituent effects on the antibacterial activity of nitrogen-carbon-linked (azolylphenyl)oxazolidinones with expanded activity against the fastidious gram-negative organisms Haemophilus influenzae and Moraxella catarrhalis” (2000)
≈ marks a conversion by molar mass, not a printed value.

What was measured:
Assay type in all cases: functional
Streptococcus pneumoniae = assay: Inhibitory activity against Streptococcus pneumoniae UC9912
[1] = test system: Staphylococcus epidermidis; assay: Inhibitory activity against Methicillin-resistant Staphylococcus epidermidis UC12084
Mus musculus [2] = assay: Dose required to cure 50% of Staphylococcus aureus infected mice in the presence of eperezolid when orally administered; value ranges from 0.1-6.6; details: po
Mus musculus [3] = assay: Dose required to cure 50% of Staphylococcus aureus infected mice when orally administered; value ranges 1.1-2.7; details: po
Mus musculus [4] = assay: Dose(orally administered) required to cure 50% of Staphylococcus aureus infected mice; details: po
Mus musculus [5] = assay: Dose(orally administered) required to cure 50% of Staphylococcus aureus infected mice in the presence of vancomycin; details: po
Enterococcus faecalis = assay: Inhibitory activity against Enterococcus faecalis UC9217
Haemophilus influenzae = assay: Inhibitory activity against Haemophilus influenzae UC30063
Moraxella catarrhalis = assay: Inhibitory activity against Moraxella catarrhalis UC30610
Staphylococcus aureus [6] = assay: Inhibitory activity against Methicillin-resistant Staphylococcus aureus UC6685
Staphylococcus aureus [7] = assay: Inhibitory activity against Methicillin-susceptible Staphylococcus aureus UC9213
Mus musculus [8] = assay: Dose required to cure 50% of Staphylococcus aureus infected mice in the presence of eperezolid when orally administered; value ranges from 1.1-2.8; details: po
Mus musculus [9] = assay: Dose required to cure 50% of Staphylococcus aureus infected mice when orally administered; details: po
Mus musculus [10] = assay: Dose required to cure 50% of Staphylococcus aureus infected mice when administered orally; details: po
Mus musculus [11] = assay: Dose required to cure 50% of Staphylococcus aureus infected mice in the presence of eperezolid when administered orally.; details: po
Mus musculus [12] = assay: Dose required to cure 50% of Staphylococcus aureus infected mice in the presence of vancomycin when orally administered; value ranges from 0.5-1.5; details: po
Mus musculus [13] = assay: Dose(orally administered) required to cure 50% of Staphylococcus aureus infected mice in the presence of eperezolid; details: po
Mus musculus [14] = assay: Dose required to cure 50% of Staphylococcus aureus infected mice when administered orally; value ranges from 3.1-13.1; details: po
Mus musculus [15] = assay: Dose required to cure 50% of Staphylococcus aureus infected mice in the presence of vancomycin when administered orally; value arnges from 1.0-3.2; details: po
Mus musculus [16] = assay: Dose(orally administered) required to cure 50% of Staphylococcus aureus infected mice in the presence of eperezolid (95% confidence limits); details: po
Mus musculus [17] = assay: Dose administered required to cure 50% of Staphylococcus aureus infected mice when administered orally; value ranges from 2.0-4.9; details: po
Mus musculus [18] = assay: Dose required to cure 50% of Staphylococcus aureus infected mice in the presence of eperezolid when administered orally;value ranges from 1.9-6.6; details: po
Mus musculus [19] = assay: Dose required to cure 50% of Staphylococcus aureus infected mice in the presence of eperezolid when orally administered; value ranges from 2.2-2.9; details: po
Mus musculus [20] = assay: Dose required to cure 50% of Staphylococcus aureus infected mice when orally administered; value ranges from 3.5-9.1; details: po
Mus musculus [21] = assay: Dose required to cure 50% of Staphylococcus aureus infected mice in the presence of eperezolid when administered orally; value ranges from 1.8-7.0; details: po
Mus musculus [22] = assay: Dose required to cure 50% of Staphylococcus aureus infected mice when aministered orally; value ranges from 0.8-2.0; details: po
Mus musculus [23] = assay: Dose required to cure 50% of Staphylococcus aureus infected mice in the presence of eperezolid when administered orally; value ranges from 1.8-4.4; details: po

SMILES	MIC (Streptococcus pneumoniae)	MIC [1]	ED50 (Mus musculus [4])	MIC (Enterococcus faecalis)	MIC (Haemophilus influenzae)	MIC (Moraxella catarrhalis)	MIC (Staphylococcus aureus [6])	MIC (Staphylococcus aureus [7])	other results
CC(=O)NC[C@H]1CN(c2ccc(-n3ccc(C#N)c3)c(F)c2)C(=O)O1	≤ 0.125 mg/L	≤ 0.125 mg/L							ED50 (Mus musculus [2]): 4 mg/kg/day; ED50 (Mus musculus [3]): 1.9 mg/kg/day
CC(=O)NC[C@H]1CN(c2ccc(-n3ccc(C=O)c3)c(F)c2)C(=O)O1	< 0.06 mg/L	0.125 mg/L (≈ 0.362 µM)	> 20 mg/kg/day						ED50 (Mus musculus [5]): 1.7 mg/kg/day
CC(=O)NC[C@H]1CN(c2ccc(-n3cccn3)c(F)c2)C(=O)O1	1 mg/L (≈ 3.14 µM)	1 mg/L (≈ 3.14 µM)		2 mg/L (≈ 6.28 µM)	32 mg/L (≈ 101 µM)	16 mg/L (≈ 50.3 µM)	2 mg/L (≈ 6.28 µM)	2 mg/L (≈ 6.28 µM)	ED50 (Mus musculus [8]): 1.8 mg/kg/day; ED50 (Mus musculus [9]): > 20 mg/kg/day
CC(=O)NC[C@H]1CN(c2ccc(-n3cnc(Cl)n3)c(F)c2)C(=O)O1	< 0.125 mg/L	0.5 mg/L (≈ 1.41 µM)	9.4 mg/kg/day	2 mg/L (≈ 5.65 µM)	16 mg/L (≈ 45.2 µM)	2 mg/L (≈ 5.65 µM)	2 mg/L (≈ 5.65 µM)	4 mg/L (≈ 11.3 µM)	ED50 (Mus musculus [5]): 5 mg/kg/day
CC(=O)NC[C@H]1CN(c2ccc(-n3ccc(C(C)=O)c3)c(F)c2)C(=O)O1	0.25 mg/L (≈ 0.696 µM)	0.5 mg/L (≈ 1.39 µM)		1 mg/L (≈ 2.78 µM)	16 mg/L (≈ 44.5 µM)	4 mg/L (≈ 11.1 µM)	1 mg/L (≈ 2.78 µM)	2 mg/L (≈ 5.57 µM)	ED50 (Mus musculus [10]): 6.5 mg/kg/day; ED50 (Mus musculus [11]): 10 mg/kg/day
CC(=O)NC[C@H]1CN(c2ccc(-n3ccc(CO)c3)c(F)c2)C(=O)O1	0.25 mg/L (≈ 0.72 µM)	0.25 mg/L (≈ 0.72 µM)		1 mg/L (≈ 2.88 µM)	4 mg/L (≈ 11.5 µM)	2 mg/L (≈ 5.76 µM)	1 mg/L (≈ 2.88 µM)	1 mg/L (≈ 2.88 µM)	ED50 (Mus musculus [12]): 0.9 mg/kg/day; ED50 (Mus musculus [9]): > 20 mg/kg/day
CC(=O)NC[C@H]1CN(c2ccc(-n3cc(C=O)nn3)c(F)c2)C(=O)O1	0.25 mg/L (≈ 0.72 µM)	< 0.125 mg/L	> 20 mg/kg/day	0.5 mg/L (≈ 1.44 µM)	4 mg/L (≈ 11.5 µM)	2 mg/L (≈ 5.76 µM)	0.25 mg/L (≈ 0.72 µM)	0.5 mg/L (≈ 1.44 µM)	ED50 (Mus musculus [13]): 1.1 mg/kg/day
CC(=O)NC[C@H]1CN(c2ccc(-n3cncn3)c(F)c2)C(=O)O1	1 mg/L (≈ 3.13 µM)	1 mg/L (≈ 3.13 µM)		4 mg/L (≈ 12.5 µM)	32 mg/L (≈ 100 µM)	16 mg/L (≈ 50.1 µM)	4 mg/L (≈ 12.5 µM)	4 mg/L (≈ 12.5 µM)	ED50 (Mus musculus [14]): 5.7 mg/kg/day; ED50 (Mus musculus [15]): 2.4 mg/kg/day
CCOC(=O)/C=C/c1ccn(-c2ccc(N3C[C@H](CNC(C)=O)OC3=O)cc2F)c1	0.5 mg/L (≈ 1.2 µM)	2 mg/L (≈ 4.81 µM)	> 20 mg/kg/day	2 mg/L (≈ 4.81 µM)	32 mg/L (≈ 77 µM)	4 mg/L (≈ 9.63 µM)	4 mg/L (≈ 9.63 µM)	4 mg/L (≈ 9.63 µM)	ED50 (Mus musculus [16]): 2.1 mg/kg/day
CC(=O)NC[C@H]1CN(c2ccc(-n3ncc(C#N)n3)c(F)c2)C(=O)O1	≤ 0.125 mg/L	≤ 0.125 mg/L		0.5 mg/L (≈ 1.45 µM)	8 mg/L (≈ 23.2 µM)	2 mg/L (≈ 5.81 µM)	0.5 mg/L (≈ 1.45 µM)	0.5 mg/L (≈ 1.45 µM)	ED50 (Mus musculus [17]): 3.2 mg/kg/day; ED50 (Mus musculus [18]): 3.8 mg/kg/day
CC(=O)NC[C@H]1CN(c2ccc(-n3ccc(/C=N\O)c3)c(F)c2)C(=O)O1	≤ 0.125 mg/L								ED50 (Mus musculus [19]): 2.6 mg/kg/day; ED50 (Mus musculus [20]): 5.5 mg/kg/day
CC(=O)NC[C@H]1CN(c2ccc(-n3cc(C#N)cn3)c(F)c2)C(=O)O1	≤ 0.125 mg/L	0.25 mg/L (≈ 0.728 µM)							ED50 (Mus musculus [21]): 3.3 mg/kg/day; ED50 (Mus musculus [22]): 1.2 mg/kg/day
COC(=O)c1ccn(-c2ccc(N3C[C@H](CNC(C)=O)OC3=O)cc2F)c1	0.25 mg/L (≈ 0.666 µM)	0.5 mg/L (≈ 1.33 µM)		1 mg/L (≈ 2.66 µM)	> 16 mg/L	16 mg/L (≈ 42.6 µM)	2 mg/L (≈ 5.33 µM)	2 mg/L (≈ 5.33 µM)	ED50 (Mus musculus [10]): > 20 mg/kg/day; ED50 (Mus musculus [23]): 2.9 mg/kg/day
